What was measured:
Assay in all cases: combination Emax (second highest fraction inhibited in the dose matrix, 72 h); higher = more inhibition; extreme values may be limits of the assay
[1] = system: BxPC-3 (Pancreatic Carcinoma)
In short: (§1)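 Cell lines in DMEM/F12 or RPMI with 10% FBS were plated in 1536-well plates, held 24 hours at 37°C, 5% CO2, then given two-drug dose matrices for 72 hours (DMSO typically 0.2%). Viability was read by CellTiter-Glo 2.0 luminescence and scaled as inhibition from 0 (vehicle wells) to 1 (blank wells). Combination Emax is the second-highest inhibition in the matrix; Bliss excess is observed combination effect minus expected EA + EB − EA·EB, EA and EB being single-agent effects.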

[2] = system: COR-L88 (Small Cell Lung Carcinoma)
In short: as §1

[3] = system: LCLC-103H (Non-Small Cell Lung Carcinoma)
In short: as §1

[4] = system: SNU-423 (Hepatocellular Carcinoma)
In short: as §1

[5] = system: KALS-1 (Glioblastoma)
In short: as §1

[6] = system: GAK (Melanoma)
In short: as §1

[7] = system: IA-LM (Non-Small Cell Lung Carcinoma)
In short: as §1

[8] = system: NCI-H3118 (Head and Neck Carcinoma)
In short: as §1

[9] = system: C-33-A (Cervical Carcinoma)
In short: as §1

[10] = system: SKG-IIIa (Cervical Carcinoma)
In short: as §1

[11] = system: LS-1034 (Colorectal Carcinoma)
In short: as §1

[12] = system: SK-CO-1 (Colorectal Carcinoma)
In short: as §1

[13] = system: MDA-MB-415 (Breast Carcinoma)
In short: as §1

[14] = system: T84 (Colorectal Carcinoma)
In short: as §1

[15] = system: SCC-4 (Oral Cavity Carcinoma)
In short: as §1

[16] = system: HPAF-II (Pancreatic Carcinoma)
In short: as §1

[17] = system: SK-N-SH (Neuroblastoma)
In short: as §1

[18] = system: RCC-JW (Kidney Carcinoma)
In short: as §1

[19] = system: NCI-H226 (Mesothelioma)
In short: as §1

[20] = system: ZR-75-30 (Breast Carcinoma)
In short: as §1

Compound | combination Emax [1] | combination Emax [2] | combination Emax [3] | combination Emax [4] | combination Emax [5] | combination Emax [6] | combination Emax [7] | combination Emax [8] | combination Emax [9] | combination Emax [10] | combination Emax [11] | combination Emax [12] | combination Emax [13] | combination Emax [14] | combination Emax [15] | combination Emax [16] | combination Emax [17] | combination Emax [18] | combination Emax [19] | combination Emax [20]
C=CCn1c(=O)c2cnc(Nc3ccc(N4CCN(C)CC4)cc3)nc2n1-c1cccc(C(C)(C)O)n1 [AZD1775] + CCc1c2c(nc3ccc(O)cc13)-c1cc3c(c(=O)n1C2)COC(=O)[C@]3(O)CC [SN-38] (first compound max 1 µM, partner max 0.3 µM) | 0.562 | 0.671 | 0.709 | 0.598 | 0.965 | 0.678 | 0.67 | 0.9 | 0.997 | 0.725 | 0.894 | 0.898 | 0.469 | 0.867 | 0.902 | 0.597 | 0.957 | 0.542 | 0.366 | 0.137
C=CCn1c(=O)c2cnc(Nc3ccc(N4CCN(C)CC4)cc3)nc2n1-c1cccc(C(C)(C)O)n1 [AZD1775] + Nc1ccn([C@@H]2O[C@H](CO)[C@@H](O)C2(F)F)c(=O)n1 [Gemcitabine] (first compound max 1 µM, partner max 0.3 µM) | 0.554 | 0.65 | 0.753 | 0.655 | 0.929 | 0.612 | 0.287 | 0.872 | 0.996 | 0.643 | – | 0.903 | 0.58 | 0.85 | 0.688 | 0.551 | 0.879 | 0.819 | 0.482 | 0.24
CN(CCO)CC[C@H](CSc1ccccc1)Nc1ccc(S(=O)(=O)NC(=O)c2ccc(N3CCC([C@@H](O)c4ccccc4-c4ccc(Cl)cc4)CC3)cc2)cc1S(=O)(=O)C(F)(F)F [AZD4320] + CC(=O)O[C@H]1C(=O)[C@@]2(C)[C@H]([C@H](OC(=O)c3ccccc3)[C@]3(O)C[C@H](OC(=O)[C@H](O)[C@@H](NC(=O)c4ccccc4)c4ccccc4)C(C)=C1C3(C)C)[C@]1(OC(C)=O)CO[C@@H]1C[C@@H]2O [Paclitaxel] (first compound max 1 µM, 7x7, partner max 3 µM) | 0.928 | 0.997 | 0.985 | 0.959 | 0.984 | 0.709 | 0.833 | 0.978 | 0.989 | 0.905 | 0.82 | 0.972 | 0.923 | 0.726 | 0.971 | 0.955 | 0.989 | 0.952 | 0.917 | 0.326
CN(CCO)CC[C@H](CSc1ccccc1)Nc1ccc(S(=O)(=O)NC(=O)c2ccc(N3CCC([C@@H](O)c4ccccc4-c4ccc(Cl)cc4)CC3)cc2)cc1S(=O)(=O)C(F)(F)F [AZD4320] + CS(=O)(=O)CCNCc1ccc(-c2ccc3ncnc(Nc4ccc(OCc5cccc(F)c5)c(Cl)c4)c3c2)o1 [Lapatinib] (first compound max 1 µM, 7x7, partner max 10 µM) | 0.486 | 0.986 | 0.488 | 0.91 | 0.422 | 0.272 | 0.539 | 0.561 | 0.476 | 0.479 | 0.939 | 0.97 | 0.917 | 0.886 | 0.942 | 0.984 | 0.97 | 1 | 0.309 | 0.957
CN(CCO)CC[C@H](CSc1ccccc1)Nc1ccc(S(=O)(=O)NC(=O)c2ccc(N3CCC([C@@H](O)c4ccccc4-c4ccc(Cl)cc4)CC3)cc2)cc1S(=O)(=O)C(F)(F)F [AZD4320] + Nc1ccn([C@@H]2O[C@H](CO)[C@@H](O)C2(F)F)c(=O)n1 [Gemcitabine] (first compound max 1 µM, 7x7, partner max 0.3 µM) | 0.577 | 0.947 | 0.681 | 0.605 | 0.595 | 0.583 | 0.594 | 0.752 | 0.796 | 0.475 | 0.592 | 0.945 | 0.637 | 0.508 | 0.743 | 0.759 | 0.968 | 0.965 | 0.555 | 0.216
C[C@@H]1COCCN1c1cc(C2([S@](C)(=N)=O)CC2)nc(-c2ccnc3[nH]ccc23)n1 [AZD6738] + C1CC(C1)(C(=O)[O-])C(=O)[O-].N.N.[Pt+2] [Carboplatin] (first compound max 10 µM, 7x7, partner max 10 µM) | 0.349 | 0.299 | 0.385 | 0.39 | 0.802 | 0.491 | 0.171 | 0.61 | – | 0.407 | 0.677 | 0.808 | 0.549 | 0.731 | 0.552 | 0.36 | 0.818 | 0.51 | 0.236 | 0.262

Source: the supplement of paper PMC11061612
